# Patent US20230077362A1 (CORTEVA AGRISCIENCE LLC, priority 2019, published 2023)
# Read-outs that look alike come from different tables or passages of the source.
# Legend:
# [1] = system: Beet Armyworm (Spodoptera exigua) ("BAW"), second instar larvae; assay: Bioassay on beet armyworm (BAW), 128-well diet tray assay; assay type: in vivo; conditions: for pest or weed control at 50 µg/cm2: Spodoptera exigua; for BAW rating: Table ABC, species BAW, C = not tested, D = no activity noticed
# How it was run: (§1)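 Read-out: percent larval mortality per well, averaged over 8 wells. Incubation 25° C., 14:10 L:D photoperiod, 5–7 days, trays sealed with clear adhesive cover.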
# [2] = system: Cabbage Looper (Trichoplusia ni) ("CL"), second instar larvae; assay: Bioassay on cabbage looper (CL), 128-well diet tray assay; assay type: in vivo; conditions: for pest or weed control at 50 µg/cm2: Trichoplusia ni; for CL rating: Table ABC, species CL, C = not tested, D = no activity noticed
# How it was run: as §1
# [3] = read-out: BAW (Biological Results, rating)
# [4] = read-out: CL (Biological Results, rating)
SMILES,pest or weed control at 50 µg/cm2 ([1]; read-out: BAW rating) [%],pest or weed control at 50 µg/cm2 ([2]; read-out: CL rating) [%],"pest or weed control at 50 µg/cm2 [1, 3] [%]","pest or weed control at 50 µg/cm2 [2, 4] [%]",other results
"Cc1ccc(COCCC(F)(F)F)c(N2C(=O)CS/C2=N\C(=O)Nc2ccc(-c3ncn(-c4ccccc4)n3)cc2F)c1 [Compound J779, (Z)-1-(2-Fluoro-4-(1-phenyl-1H-1,2,4-triazol-3-yl)phenyl)-3-(3-(5-methyl-2-((3,3,3-trifluoropropoxy)methyl)phenyl)-4-oxothiazolidin-2-ylidene)urea]",50 to 100,50 to 100,,,
"O=C(/N=C1\SCC(=O)N1c1cc(C(F)(F)F)ccc1C(F)(F)F)Nc1ccc(-c2ncn(-c3ccc(OC(F)(F)F)cc3)n2)cc1F [Compound J50, (Z)-1-(3-(2,5-Bis(trifluoromethyl)phenyl)-4-oxothiazolidin-2-ylidene)-3-(2-fluoro-4-(1-(4-(trifluoromethoxy)phenyl)-1H-1,2,4-triazol-3-yl)phenyl)urea]",,,50 to 100,50 to 100,
"Cc1ccc(COCc2ccccc2)c(N2C(=O)CS/C2=N\C(=O)Nc2ccc(-c3ncn(-c4ccc(OC(F)(F)F)cc4)n3)cc2F)c1 [Compound J571, (Z)-1-(3-(2-((Benzyloxy)methyl)-5-methylphenyl)-4-oxothiazolidin-2-ylidene)-3-(2-fluoro-4-(1-(4-(trifluoromethoxy)phenyl)-1H-1,2,4-triazol-3-yl)phenyl)urea]",50 to 100,50 to 100,,,
"COC(C)c1ccc(C)cc1N1C(=O)CS/C1=N\C(=O)Nc1ccc(-c2ncn(-c3ccc(OCC#N)cc3)n2)cc1F (stereo not shown) [Compound J340, (Z)-1-(4-(1-(4-(Cyanomethoxy)phenyl)-1H-1,2,4-triazol-3-yl)-2-fluorophenyl)-3-(3-(2-(1-methoxyethyl)-5-methylphenyl)-4-oxothiazolidin-2-ylidene)urea]",,,50 to 100,50 to 100,
CCOCc1ccc(C)cc1N1C(=O)CS/C1=N\C(=O)Nc1ccc(-c2ncn(-c3cc(C(F)(F)F)cc(C(F)(F)F)c3)n2)cc1F [Compound J761],,,,,BAW rating [1]: A (50-100); CL rating [2]: A (50-100)
"CCCCc1ccc(C)cc1N1C(=O)CS/C1=N\C(=O)Nc1ccc(-c2ncn(-c3ccc(OC(F)(F)F)cc3)n2)cc1F [Compound J44, (Z)-1-(3-(2-Butyl-5-methylphenyl)-4-oxothiazolidin-2-ylidene)-3-(2-fluoro-4-(1-(4-(trifluoromethoxy)phenyl)-1H-1,2,4-triazol-3-yl)phenyl)urea]",,,50 to 100,50 to 100,
"CCOCc1ccc(C)cc1N1C(=O)CS/C1=N\C(=O)Nc1ccc(-c2nnc(-c3ccc(OC(F)(F)F)cc3)o2)cc1F [Compound J610, (Z)-1-(3-(2-(Ethoxymethyl)-5-methylphenyl)-4-oxothiazolidin-2-ylidene)-3-(2-fluoro-4-(5-(4-(trifluoromethoxy)phenyl)-1,3,4-oxadiazol-2-yl)phenyl)urea]",50 to 100,50 to 100,,,
"Cc1ccc(COCC(F)(F)F)c(N2C(=O)CS/C2=N\C(=O)Nc2ccc(-c3ncn(-c4ccc(OC(F)(F)F)cc4)n3)cc2C#N)c1 [Compound J245, (Z)-1-(2-Cyano-4-(1-(4-(trifluoromethoxy)phenyl)-1H-1,2,4-triazol-3-yl)phenyl)-3-(3-(5-methyl-2-((2,2,2-trifluoroethoxy)methyl)phenyl)-4-oxothiazolidin-2-ylidene)urea]",,,50 to 100,50 to 100,
"CCCc1ccc(C)cc1N1C(=O)CS/C1=N\C(=O)Nc1ccc(-c2ncn(-c3ccc(C(F)(F)F)cc3)n2)cc1C [Compound J15, (Z)-1-(3-(5-Methyl-2-propylphenyl)-4-oxothiazolidin-2-ylidene)-3-(2-methyl-4-(1-(4-(trifluoromethyl)phenyl)-1H-1,2,4-triazol-3-yl)phenyl)urea]",,,50 to 100,50 to 100,
CCOCc1ccc(C)cc1N1C(=O)CS/C1=N\C(=O)Nc1ccc(-c2ncn(-c3ccc(S(F)(F)(F)(F)F)cc3)n2)cc1C#N [Compound J582],50 to 100,50 to 100,,,
COC(C)c1ccc(C)cc1N1C(=O)CS/C1=N\C(=O)Nc1ccc(-c2ccn(-c3ccc(C(F)(F)F)nn3)n2)cc1F (stereo not shown) [Compound J381],,,,,BAW rating [1]: A (50-100); CL rating [2]: A (50-100)
"CC(C)c1cc(F)c(N(C)C)cc1N1C(=O)CS/C1=N\C(=O)Nc1ccc(-c2ncn(-c3ccc(SC(F)(F)F)cc3)n2)cc1 [Compound J389, (Z)-1-(3-(5-(Dimethylamino)-4-fluoro-2-isopropylphenyl)-4-oxothiazolidin-2-ylidene)-3-(4-(1-(4-((trifluoromethyl)thio)phenyl)-1H-1,2,4-triazol-3-yl)phenyl)urea]",50 to 100,50 to 100,,,
"Cc1ccc(C(F)(F)F)c(N2C(=O)CS/C2=N\C(=O)Nc2ccc(-c3ncn(-c4ccc(OC(F)(F)F)cc4)n3)cc2F)c1 [Compound J30, (Z)-1-(2-Fluoro-4-(1-(4-(trifluoromethoxy)phenyl)-1H-1,2,4-triazol-3-yl)phenyl)-3-(3-(5-methyl-2-(trifluoromethyl)phenyl)-4-oxothiazolidin-2-ylidene)urea]",,,50 to 100,50 to 100,
"Cc1ccc(OCCCC(F)(F)F)c(N2C(=O)CS/C2=N\C(=O)Nc2c(F)cc(-c3ncn(-c4ccc(OC(F)(F)F)cc4)n3)cc2F)c1 [Compound J80, (Z)-1-(2,6-Difluoro-4-(1-(4-(trifluoromethoxy)phenyl)-1H-1,2,4-triazol-3-yl)phenyl)-3-(3-(5-methyl-2-(4,4,4-trifluorobutoxy)phenyl)-4-oxothiazolidin-2-ylidene)urea]",,,50 to 100,50 to 100,
"Cc1ccc(C(C)C)c(N2C(=O)CS/C2=N\C(=O)Nc2ccc(-c3nnc(-c4ccc(OC(F)(F)F)cc4)o3)cc2F)c1 [Compound J607, (Z)-1-(2-fluoro-4-(5-(4-(trifluoromethoxy)phenyl)-1,3,4-oxadiazol-2-yl)phenyl)-3-(3-(2-isopropyl-5-methylphenyl)-4-oxothiazolidin-2-ylidene)urea]",50 to 100,50 to 100,,,
"COC(c1ccc(C)cc1N1C(=O)CS/C1=N\C(=O)Nc1ccc(-c2cn(-c3ccc(S(F)(F)(F)(F)F)cc3)cn2)cc1F)C(F)(F)F (stereo not shown) [Compound J599, (Z)-1-(2-Fluoro-4-(1-(4-(pentafluoro-λ^6-sulfaneyl)phenyl)-1H-imidazol-4-yl)phenyl)-3-(3-(5-methyl-2-(2,2,2-trifluoro-1-methoxyethyl)phenyl)-4-oxothiazolidin-2-ylidene)urea]",50 to 100,50 to 100,,,
"COc1ccc(C(C)C)c(N2C(=O)CS/C2=N\C(=O)Nc2ccc(-c3ncn(-c4ccc(OC(F)(F)F)cc4)n3)cc2OC)c1 [Compound J6, (Z)-1-(3-(2-Isopropyl-5-methoxyphenyl)-4-oxothiazolidin-2-ylidene)-3-(2-methoxy-4-(1-(4-(trifluoromethoxy)phenyl)-1H-1,2,4-triazol-3-yl)phenyl)urea]",,,50 to 100,50 to 100,
"Cc1ccc(C(F)(F)F)c(N2C(=O)CS/C2=N\C(=O)Nc2ccc(-c3ncn(-c4ccc(OC(F)(F)F)cc4)n3)cc2Cl)c1 [Compound J39, (Z)-1-(2-Chloro-4-(1-(4-(trifluoromethoxy)phenyl)-1H-1,2,4-triazol-3-yl)phenyl)-3-(3-(5-methyl-2-(trifluoromethyl)phenyl)-4-oxothiazolidin-2-ylidene)urea]",,,50 to 100,50 to 100,
"CCOCc1ccc(C)cc1N1C(=O)CS/C1=N\C(=O)Nc1ccc(-c2ncn(-c3cc(C(F)(F)F)cc(C(F)(F)F)c3)n2)cc1C [Compound J763, (Z)-1-(4-(1-(3,5-Bis(trifluoromethyl)phenyl)-1H-1,2,4-triazol-3-yl)-2-methylphenyl)-3-(3-(2-(ethoxymethyl)-5-methylphenyl)-4-oxothiazolidin-2-ylidene)urea]",50 to 100,50 to 100,,,
CCOC(C)c1ccc(C)cc1N1C(=O)CS/C1=N\C(=O)Nc1ccc(-c2ncn(-c3ccc(C(F)F)cn3)n2)cc1F (stereo not shown) [Compound J354],,,,,"BAW (Biological Results, rating) ([1]; Beet Armyworm (Spodoptera exigua), C = Not Tested): A (50-100); CL (Biological Results, rating) ([2]; Cabbage Looper (Trichoplusia ni), C = Not Tested): A (50-100)"
"Cc1ccc(Cc2ccccc2)c(N2C(=O)CS/C2=N\C(=O)Nc2ccc(-c3ncn(-c4ccc(OC(F)(F)F)cc4)n3)cc2C)c1 [Compound J456, (Z)-1-(3-(2-Benzyl-5-methylphenyl)-4-oxothiazolidin-2-ylidene)-3-(2-methyl-4-(1-(4-(trifluoromethoxy)phenyl)-1H-1,2,4-triazol-3-yl)phenyl)urea]",50 to 100,50 to 100,,,
"CC(C)c1cc(-c2ncn(-c3ccc(OC(F)(F)F)cc3)n2)ccc1NC(=O)/N=C1\SCC(=O)N1c1cc(N(C)C)ccc1OCCC(F)(F)F [Compound J111, (Z)-1-(3-(5-(Dimethylamino)-2-(3,3,3-trifluoropropoxy)phenyl)-4-oxothiazolidin-2-ylidene)-3-(2-isopropyl-4-(1-(4-(trifluoromethoxy)phenyl)-1H-1,2,4-triazol-3-yl)phenyl)urea]",,,50 to 100,50 to 100,
"COC(C)c1ccc(C)cc1N1C(=O)CS/C1=N\C(=O)Nc1ccc(-c2ncn(-c3ccc(OC(F)(F)F)cn3)n2)cc1Cl (stereo not shown) [Compound J250, (Z)-1-(2-Chloro-4-(1-(5-(trifluoromethoxy)pyridin-2-yl)-1H-1,2,4-triazol-3-yl)phenyl)-3-(3-(2-(1-methoxyethyl)-5-methylphenyl)-4-oxothiazolidin-2-ylidene)urea]",,,50 to 100,50 to 100,
